Source: BigSolDB 2.1

Cl.c1ccc2c(CC3=NCCN3)cccc2c1
solubility (mole fraction)
Conditions	278.15 K	283.15 K	288.15 K	293.15 K	298.15 K	303.15 K	308.15 K	313.15 K	318.15 K	323.15 K
in 2-methoxyethanol	0.0132	0.0157	0.0184	0.0214	0.0246	0.0287	0.0329	0.0366	0.0419	0.0476
in ethanol	0.00313	0.00386	0.00457	0.00545	0.00639	0.0076	0.00893	0.0104	0.012	0.014
in isopropanol	0.000605	0.000784	0.00101	0.0013	0.00169	0.00202	0.00249	0.00309	0.00377	0.00462
in methanol	0.011	0.0137	0.0164	0.0198	0.0243	0.0287	0.0337	0.04	0.0462	0.0527
